From ChEMBL document CHEMBL2331526, “Synthesis and characterization of novel quick-release propofol prodrug via lactonization” (Bioorg Med Chem Lett, 2013)
Activity calls are given as the source filed them. No cut-off for these calls is given here.

Tests used:
Rattus norvegicus [1] = test: Anesthetic effect in Sprague-Dawley rat assessed as duration time of disappearance of righting reflex to recovery of righting reflex at 2 times ED50, iv; assay type: functional
[2] = Therapeutic index, ratio of LD50 for Sprague-Dawley rat to ED50 for Sprague-Dawley rat; assay type: organism-based; conditions: in vivo, read-out: TI
[3] = Toxicity in iv dosed Sprague-Dawley rat; assay type: organism-based; conditions: in vivo
Rattus norvegicus [4] = test: Anesthetic effect in Sprague-Dawley rat assessed as onset time of disappearance of the righting reflex at 2 times ED50, iv; assay type: functional
Rattus norvegicus [5] = test: Anesthetic effect in iv dosed Sprague-Dawley rat assessed as disappearance of the righting reflex; assay type: functional
Rattus norvegicus [6] = test: Anesthetic effect in Sprague-Dawley rat assessed as disappearance of the righting reflex at 200 mg/kg, iv; assay type: functional, organism-based; design: dose 200 mg/kg
[7] = Solubility of the compound in water; assay type: physicochemical; conditions: buffer
Plasma = test: Prodrug activation in preheated rat plasma assessed as propofol release at 5 umol/ml measured up to 4 hrs by HPLC analysis; assay type: cell-free; conditions: 5000 µM
[8] = Drug degradation in 30% emulsion at 5 umol/ml measured up to 4 hrs by HPLC analysis; assay type: physicochemical; conditions: 5000 µM
[9] = Drug degradation in aqueous ethanol at 5 umol/ml measured up to 4 hrs by HPLC analysis; assay type: physicochemical; conditions: buffer, 5000 µM
Rattus norvegicus [10] = test: Toxicity in Sprague-Dawley rat assessed as duration of systemic convulsions at 34 mg/kg, iv; assay type: organism-based; design: dose 34 mg/kg, route intravenous; conditions: in vivo
Rattus norvegicus [11] = test: Anesthetic effect in Sprague-Dawley rat assessed as disappearance of the righting reflex at 34 mg/kg, iv; assay type: functional, organism-based; design: dose 34 mg/kg
Rattus norvegicus [12] = test: Toxicity in Sprague-Dawley rat assessed as duration of systemic convulsions at 40 mg/kg, iv; assay type: organism-based; design: dose 40 mg/kg, route intravenous; conditions: in vivo

Structure (SMILES) | Time (Rattus norvegicus [1]) | selectivity ratio [2] | LD50 [3] | Time (Rattus norvegicus [4]) | ED50 (Rattus norvegicus [5]) | Activity (Rattus norvegicus [6]) | solubility [7] | Drug metabolism (Plasma) | Stability [8] | Stability [9] | Activity (Rattus norvegicus [10]) | Activity (Rattus norvegicus [11]) | Time (Rattus norvegicus [12])
CC(C)c1cccc(C(C)C)c1OCOP(=O)([O-])[O-].[Na+].[Na+] [FOSPROPOFOL DISODIUM] | 31.04 min | 4.69 | 163 mg/kg | 2.17 min | 34.8 mg/kg | – | – | – | – | – | – | – | –
CCCC(=O)Oc1c(C(C)C)cccc1C(C)C | – | – | – | – | – | inactive | Insoluble | – | – | – | – | – | –
CC(C)c1cccc(C(C)C)c1O [PROPOFOL] | 8.41 min | 4.12 | 27.1 mg/kg | 0 min | 6.57 mg/kg | – | – | – | – | – | – | – | –
CC(C)c1cccc(C(C)C)c1OC(=O)CCCO | 24.36 min | 4.67 | 81.5 mg/kg | 0.06 min | 17.5 mg/kg | – | – | Active | Stable | Stable | – | – | –
CC(C)c1cccc(C(C)C)c1OC(=O)CCCOC(=O)CN.O=C(O)C(F)(F)F | 12.74 min | 2.96 | 42.7 mg/kg | 0.26 min | 14.4 mg/kg | – | soluble | – | – | – | – | – | –
CC(C)c1cccc(C(C)C)c1OC(=O)CCCOP(=O)([O-])[O-].[Na+].[Na+] | 27.49 min | 6.48 | 288 mg/kg | 2.11 min | 44.5 mg/kg | – | soluble | – | – | – | – | – | –
CC(C)c1cccc(C(C)C)c1OCCCCO | – | – | – | – | – | – | Insoluble | – | – | – | Toxic | inactive | 3.8 min
